Measured values taken from PubChem BioAssay (NCI).
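All cell lines were grown in 96-well plates and treated with compound for 48 hours. GI50 is the concentration that inhibits growth by half. At the TGI there is no net growth.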

How the values were obtained:
Assay in all cases: growth of human tumour cells (NCI), 48 h
[1] = test system: HCT-15 colon
[2] = test system: SN12C renal
[3] = test system: SK-MEL-2 melanoma
[4] = test system: OVCAR-4 ovarian
[5] = test system: OVCAR-8 ovarian
[6] = test system: SF-295 CNS
[7] = test system: EKVX NSCLC
[8] = test system: NCI-H23 lung
[9] = test system: RPMI-8226 leukemia
[10] = test system: MOLT-4 leukemia

Structure (SMILES)	TGI [1] [µM]	TGI [2] [µM]	TGI [3] [µM]	TGI [4] [µM]	TGI [5] [µM]	TGI [6] [µM]	TGI [7] [µM]	TGI [8] [µM]	TGI [9] [µM]	TGI [10] [µM]	GI50 [9] [µM]	GI50 [1] [µM]	GI50 [2] [µM]	GI50 [3] [µM]	GI50 [4] [µM]	GI50 [5] [µM]	GI50 [6] [µM]	GI50 [7] [µM]	GI50 [8] [µM]	GI50 [10] [µM]
CCNCC(=O)Nc1ccc2c(c1)C(=O)c1ccc(NC(=O)CNCC)cc1C2=O	8.29	6.45	47.4	2.24	15.1	14.2	20.5	14.8												
C=C(C)CC(C(=O)O)c1ccc(C)cc1 (stereo not given)	> 100	> 100	> 100	> 100	> 100	> 100	> 100	> 100	> 100											
O=C1CCCc2ccc([N+](=O)[O-])c(O)c21	> 100	> 100	> 100	> 100	> 100	> 100	> 100	> 100		> 100										
O=S(O)O.O=S(O)O.[Co].[NH2-].[NH2-].[NH2-].[NH2-]	> 100	> 100	> 100	> 100	> 100	> 100	> 100	> 100	> 100		> 100	> 100	> 100	> 100	> 100	> 100	> 100	> 100	> 100	
CCCCCCCCCCCCCCCCn1cc[n+](C)c1	2.15	1.89		17.8		1.43	1.96	1.87	0.19	1.5	0.024	0.989	0.667		0.372		0.318	0.422	0.287	0.306
C=CCCn1nc(-c2ccccc2)oc1=O	> 100	> 100	> 100	> 100	> 100	> 100	> 100	> 100		> 100										
O=C1OC2(c3ccc(O)cc3Oc3cc(O)ccc32)c2cccc3cccc1c23	52.6	82.9	48	34.4	36.9	> 100		49.9	56.3	> 100	21.5	19.2	22.1	21.4	16.1	17.4	32.3		20	31.6
CCOC(=O)Cc1csc(NC(=O)C(OC(=O)c2ccc(Cl)cc2)c2ccccc2)n1 (stereo not given)	> 100	> 100	50.7	> 100	> 100	56.8	> 100		46.6	> 100	17.1	51.6	37.8	23.8	40.3	64.8	24.6	59.6		26
